Results published in patent publication US20110160266A1, “Novel Anti-Arrhythmia Agent” (THE UAB RESEARCH FOUNDATION, priority 2008, published 2011).
Entries after “also recorded” stand apart in the source; their conditions may differ. Counter-ions that a name gives are not always drawn.

Legend:
[1] = test system: rat left atria; assay: Suppression of STA induced by 2-APB plus BayK 8644 or isoproterenol in left atria
Procedure: 3 Hz-paced left atria (n=9 per group) were superfused (i) in Krebs-Henseleit alone or (ii) they were treated with 20 μM 2-APB for 10 min, (iii) with 300 nM BayK 8644 for 10 min and with 20 μM 2-APB for 10 min, or (iv) they were treated with 300 nM BayK 8644 and 20 μM 2-APB for 10 min, then with 70 μM zatebradine (3-[3-[[2-(3,4-Dimethoxyphenyl)ethyl]methyl amino]propyl]-1,3,4,5-tetrahydro-7,8,-dimethoxy-2H-3-benzazepin-2-one hydrochloride) for 10 min (Baruscotti et al., 2005). Pacing was interrupted at these times and rates of SMA were recorded.
Left atria (n=9) were paced at 0.1 Hz, treated with 300 nM BayK 8644 for 5 min, then with 20 μM 2-APB for 10 min, and the pacing stimulus was stopped. These preparations then were incubated with six increasing concentrations of zatebradine (10-100 μM) for 3-5 min at each concentration, and rates of SMA were recorded. Untreated right atria (n=9) also were titrated with zatebradine and its effect on contraction frequency was recorded.
To test whether zatebradine affects left atrial force of contraction, two groups of left atria (n=9 per group) were paced at 3 Hz and treated with 300 nM BayK 8644. Five minutes later one group was incubated with six increasing concentrations of zatebradine (10-100 μM) for 3-5 min at each concentration, and forces of contraction were recorded. A second group was treated with BayK 8644 but not zatebradine, and forces of contraction were recorded at corresponding times.
To test whether zatebradine affects the SMA occurring in the presence of 2-APB and isoproterenol, left atria (n=7) were paced at 0.1 Hz, treated with 30 nM isoproterenol for 5 min, then with 20 μM 2-APB for 10 min, and the pacing stimulus was stopped. Rates of SMA were recorded, these left atria were exposed to 70 μM zatebradine for 10 min, and rates of SMA were recorded again. A group of right atria (n=7) also were exposed to 30 nM isoproterenol for 5 min and then to 70 μM zatebradine for 10 min. Right atrial contraction frequency was recorded at these two times.
To test whether ZD-7288, an If inhibitor structurally unrelated to zatebradine (Baruscotti et al., 2005; Sanders et al., 2006) affects the SMA occurring in the presence of 2-APB and BayK 8644, rat left atria (n=7) were treated with 300 nM BayK 8644 for 5 min, then with 20 μM 2-APB for 10 min, and the rates of ectopic activity were recorded. These atria then were incubated with six increasing concentrations of ZD-7288 (10-100 μM) for 3-5 min at each concentration, and the rates of SMA were recorded. Right atria (n=7) were titrated similarly with ZD-7288 (0-100 μM) and the change in their contraction frequency was recorded.
In these experiments, a 2-APB model system was used to simulate tachycardic abnormal automaticity. Specifically, superfused left atria were treated sequentially with 300 nM BayK 8644, an activator of voltage-dependent calcium entry, which loads myocytes with calcium, and then with 2-APB (20 μM) to activate the putative myocyte system for abnormal automaticity. […] SKF-96365 (10 μM) was added to the superfusate. SKF-96365 reversed STA in these left atria within 2-3 min and the muscle became quiescent in the absence of pacing (FIG. 34, “Rest”).
Additional experiments determined the concentration-dependence of SKF-96365 inhibition of STA. These experiments were performed as described above except that various concentrations of SKF-96365 were added to the left atrial superfusate (about 10-70 μM). Exposing left atria to various concentrations of SKF-96365 reversed STA (FIG. 35).

[2] = test system: rat left atria
[3] = test system: rat left atria; assay: tissue or blood; details: 5 min, read-out: IC50 for suppression of triggered ectopic contractions induced by ATX II
[4] = test system: rat left atria; assay: Chaotic, fibrillation-like activity in left atria at 37° C., paced at 6 Hz
Procedure: In this example, it was evaluated whether SKF-96365 could reverse chaotic, fibrillation-like activity. In these experiments, left atria were superfused at 37° C., paced at 6 Hz (a physiological rate under these conditions), exposed to 300 nM BayK 8644 to load calcium and then to 20 μM 2-APB to induce tachycardic activity.

[5] = test system: rat left atria; assay: Reversal or prevention of 2-APB-induced SMA in superfused rat left atria
Procedure: (A) Titration curve of ranolazine reversal of SMA in superfused left atrial appendage. Superfused appendages (n=7) were treated with 2-APB and following the appearance of SMA they were titrated with increasing concentrations of ranolazine for 3-5 min at any concentration. Rates of SMA in the absence of pacing were recorded. (B) Typical raw mechanical data for an appendage treated with 2-APB and then with 0, 10 or 80 μM ranolazine. All data are in the absence of pacing. […]
To test whether an anion transport inhibitor affected SMA, atria (n=7) were paced at 0.1 Hz in KH and exposed to 15 μM 2-APB. Following the appearance of SMA, they were titrated with 100 to 400 μM DIDS for 3 to 5 min at each concentration. Whether SMA occurred at the end of each titration period was recorded.
In these experiments, a 2-APB model system was used to simulate abnormal automaticity. Specifically, paced (0.1 Hz) superfused left atria were treated with 2-APB (20 μM) and the pacing stimulus was stopped after the appearance of SMA. SKF-96365 (25 μM) was then added to the superfusate and the effect on SMA was measured.
Additional experiments determined the concentration-dependence of SKF-96365 inhibtion of SMA. These experiments were performed as described above except that various concentrations of SKF-96365 were added to the left atrial superfusate (about 10-65 μM).
In these experiments, a 2-APB model system was used to simulate abnormal automaticity. Specifically, superfused left atria were exposed to 0 or to 50 μM SKF-96365 for 10 min. Following this pre-incubation, muscles were titrated with increasing concentrations of 2-APB (0-30 μM) and the rate of SMA was measured about 10 min later in the absence of pacing.

SMILES: COc1ccc(CCCOC(Cn2ccnc2)c2ccc(OC)cc2)cc1 (stereo not drawn) [SKF-96365, 1-[β-(3-(4-Methoxyphenyl)propoxy)-4-methoxyphenethyl]-1H-imidazole hydrochloride]
- time to reversal of STA ([1]; 300 nM BayK 8644 + 20 μM 2-APB, SKF-96365 (10 μM), absence of pacing): 2 to 3 min
- effect on STA initiated by BayK 8644 and 2-APB ([1]; 300 nM BayK 8644 + 20 μM 2-APB, zatebradine 70 μM, ZD-7288 10-100 μM, SKF-96365 about 10-70 μM, hydrochloride): reverses STA
- effect on normal excitation-contraction coupling ([1]; after STA reversal, 0.1 Hz pacing restored): did not affect normal excitation-contraction coupling
- triggered activity after exposure to SKF-96365 ([2]; 25 nM ATX II, 20 μM SKF-96365 for ~5 min, 1 Hz pacing, hydrochloride): shows no triggered activity; also recorded: shows no triggered events; also recorded: suppresses triggered activity
- effect on left atrial force of contraction / mechanical performance (titration) ([2]; 25 nM ATX II, 1 Hz-paced, ~5 min at each concentration, hydrochloride): did not decrease the mechanical performance; also recorded: did not affect left atrial force of contraction
- prevention of triggered activity by pre-treatment ([2]; SKF-96365 20 μM (legend 20-25 μM) for ~10 min before 25 nM ATX II, recorded over 10-15 min, hydrochloride): prevents the appearance of triggered activity; also recorded: triggered activity does not occur
- time to reversal of triggered activity ([2]; SKF-96365 added to superfusate of left atria undergoing ATX II triggered activity): 2 to 5 min
- IC50 [3]: ~12 µM
- time to restoration of normal patterns of excitation-contraction ([4]; ~40 μM SKF-96365, 300 nM BayK 8644 + 20 μM 2-APB): 5 to 8 min
- effect on chaotic, fibrillation-like mechanical activity ([4]; ~40 μM SKF-96365, hydrochloride): restores normal patterns of excitation-contraction; also recorded: no longer contracted chaotically
- effect on normal excitation-contraction coupling ([5]; 25 μM SKF-96365, 0.1 Hz pacing restored after SMA suppression): did not affect normal excitation-contraction coupling
- time to suppression of SMA ([5]; 25 μM SKF-96365, 2-APB-treated left atria, absence of pacing): 2 to 3 min
- prevention of SMA by pre-treatment ([5]; 50 μM SKF-96365 for 10 min, then 2-APB 0-30 μM, measured ~10 min later without pacing, hydrochloride): prevents the appearance of SMA
- IC50 ([5]; Rattus norvegicus, read-out: IC50 for inhibition (reversal) of SMA): ~15 µM
- effect on 2-APB-induced sporadic ectopic activity (SMA) ([5]; titration after appearance of SMA, absence of pacing): suppressed SMA
- time to suppression of SMA ([5]; various concentrations of SKF-96365 (about 10-65 μM)): 2 to 3 min
